Experimental findings from patent US11180504B2 (ORCHID PHARMA LTD., priority 2016, dated 2021) are described below.

In brackets after ≈: the same amount, converted by molar mass. Where two headings read alike, the source gives them in different places.

For assay [1], the system named is carbapenem sensitive Pseudomonas aeruginosa. Nature of the assay: MIC by broth micro-dilution (CLSI), carbapenem sensitive P. aeruginosa. The format is cell-based. (Broth dilution looks for growth in wells or tubes with falling amounts of substance.)
Assay [2] concerns carbapenem sensitive Escherichia coli. Nature of the assay: MIC by broth micro-dilution (CLSI), carbapenem sensitive E. coli. Type of assay: cell-based.
The subject of assay [3] is methicillin-sensitive Staphylococcus aureus. Nature of the assay: MIC by broth micro-dilution (CLSI), methicillin-sensitive S. aureus. The format is cell-based. Particulars: MSSA S. aureus ATCC29213.
Assay [4] relates to carbapenemase producing K. pneumoniae. The assay is described as follows: MIC by broth micro-dilution (CLSI), carbapenemase producing K. pneumoniae. The format is cell-based, Klebsiella pneumoniae.
[5] abbreviates: Pseudomonas aeruginosa, ATCC27853, Meropenem susceptible P. aeruginosa ATCC27853, read-out: MIC.
Setting [6] is: Escherichia coli, ATCC25922, ESBL −ve E. coli ATCC25922, read-out: MIC.
Where [7] appears, read: Staphylococcus aureus, ATCC 29213 / MSSA, read-out: MIC.
The mark [8] stands for this setting: Klebsiella pneumoniae, ATCCBAA1705, KPC-2 K. pneumoniae ATCC BAA-1705, read-out: MIC.

Turning to `CNCc1cn(CC(=O)N[C@H](C)[C@H]2C(=O)N3C(C(=O)O)=C(S[C@@H]4CN[C@H](C(=O)N(C)C)C4)[C@H](C)[C@H]23)nn1` [Example 309, (4R,5S,6R)-3-((3S,5S)-5-(dimethylcarbamoyl)pyrrolidin-3-ylthio)-4-methyl-6-((R) - 1-(2-(4-((methylamino)methyl)-1H-1,2,3-triazol-1-yl)acetamido)ethyl)-7-oxo-1-azabicyclo[3.2.0]hept-2-ene-2-carboxylic acid], the minimum inhibitory concentration (MIC) (in general, the least concentration at which growth counts as inhibited) amounted to 32 µg/mL (≈ 59.9 µM) in assay [1] (setting [5]), 1 µg/mL (≈ 1.87 µM) in assay [2] (setting [6]), 16 µg/mL (≈ 29.9 µM) in assay [3] (setting [7]) and 4 µg/mL (≈ 7.48 µM) in assay [4] (setting [8]).

For the compound `C[C@@H](NC(=O)Cn1cnnn1)[C@H]1C(=O)N2C(C(=O)O)=C(S[C@@H]3CN[C@H](C(=O)N4CCC(N)CC4)C3)[C@H](C)[C@H]12` [Example 340, (4R,5S,6R)-6-((R) - 1-(2-(1H-tetrazol-1-yl)acetamido)ethyl)-3-((3S,5S)-5-(4-aminopiperidine-1-carbonyl)pyrrolidin-3-ylthio)-4-methyl-7-oxo-1-azabicyclo[3.2.0]hept-2-ene-2-carboxylic acid], the minimum inhibitory concentration (MIC) in assay [1] (setting [5]) came to 4 µg/mL (≈ 7.3 µM); in assay [2] (setting [6]), 1 µg/mL (≈ 1.83 µM); in assay [3] (setting [7]), 8 µg/mL (≈ 14.6 µM); in assay [4] (setting [8]) it was 4 µg/mL (≈ 7.3 µM).

On to `C[C@@H](NC(=O)Cn1cnnn1)[C@H]1C(=O)N2C(C(=O)O)=C(S[C@@H]3CN[C@H](C(=O)N4CCC5CNCC54)C3)[C@H](C)[C@H]12` (single isomer, unassigned) [Example 466], for which the MIC in assay [1] (setting [5]) was 4 µg/mL (≈ 7.15 µM); in assay [2] (setting [6]), 0.5 µg/mL (≈ 0.893 µM); in assay [3] (setting [7]), 4 µg/mL (≈ 7.15 µM); in assay [4] (setting [8]), 2 µg/mL (≈ 3.57 µM).

With `C[C@@H](NC(=O)Cn1cnnn1)[C@H]1C(=O)N2C(C(=O)O)=C(S[C@@H]3CN[C@H](C(=O)N4CCC(Nc5ncccn5)CC4)C3)[C@H](C)[C@H]12` [Example 370, (4R,5S,6R)-6-((R)-1-(2-(1H-tetrazol-1-yl)acetamido)ethyl)-4-methyl-7-oxo-3-((3S,5S)-5-(4-(pyrimidin-2-ylamino)piperidine-1-carbonyl)pyrrolidin-3-ylthio)-1-azabicyclo[3.2.0]hept-2-ene-2-carboxylic acid], the minimum inhibitory concentration (MIC) in assay [1] (setting [5]) is above 128 µg/mL; in assay [2] (setting [6]) it was 4 µg/mL (≈ 6.39 µM); in assay [3] (setting [7]), 8 µg/mL (≈ 12.8 µM); in assay [4] (setting [8]), 64 µg/mL (≈ 102 µM).

Regarding `C[C@@H](NC(=O)Cn1cnnn1)[C@H]1C(=O)N2C(C(=O)O)=C(S[C@@H]3CN[C@H](C(=O)N4C[C@@H](N)C[C@H]4CO)C3)[C@H](C)[C@H]12` [Example 412, (4R,5S,6R)-6-((R)-1-(2-(1H-tetrazol-1-yl)acetamido)ethyl)-3-((3S,5S)-5-((2S,4S)-4-amino-2-(hydroxymethyl)pyrrolidine-1-carbonyl)pyrrolidin-3-ylthio)-4-methyl-7-oxo-1-azabicyclo[3.2.0]hept-2-ene-2-carboxylic acid], the minimal inhibitory concentration (MIC) in assay [1] (setting [5]) is 1 µg/mL (≈ 1.77 µM); in assay [2] (setting [6]), 0.25 µg/mL (≈ 0.444 µM); in assay [3] (setting [7]) it was 2 µg/mL (≈ 3.55 µM); in assay [4] (setting [8]), 2 µg/mL (≈ 3.55 µM).

Consider `C[C@@H](NC(=O)Cn1cnnn1)[C@H]1C(=O)N2C(C(=O)O)=C(S[C@@H]3CN[C@H](C(=O)N4C[C@H](N)[C@@H](O)[C@H]4CO)C3)[C@H](C)[C@H]12` [Example 549, (4R,5S,6R)-6-((R)-1-(2-(1H-tetrazol-1-yl)acetamido)ethyl)-3-((3S,5S)-5-((2R,3R,4S)-4-amino-3-hydroxy-2-(hydroxymethyl)pyrrolidine-1-carbonyl)pyrrolidin-3-ylthio)-4-methyl-7-oxo-1-azabicyclo[3.2.0]hept-2-ene-2-carboxylic acid], for which the minimal inhibitory concentration (MIC) in assay [1] (setting [5]) turned out to be 1 µg/mL (≈ 1.73 µM); in assay [2] (setting [6]), 0.125 µg/mL (≈ 0.216 µM); in assay [3] (setting [7]) it was 4 µg/mL (≈ 6.9 µM); in assay [4] (setting [8]), 1 µg/mL (≈ 1.73 µM).

On to `C[C@@H](NC(=O)Cn1nnc(N)n1)[C@H]1C(=O)N2C(C(=O)O)=C(S[C@@H]3CN[C@H](C(=O)N4CC[C@@H](N)C4)C3)[C@H](C)[C@H]12` [Example 316, (4R,5S,6R)-6-((R) - 1-(2-(5-amino-2H-tetrazol-2-yl)acetamido)ethyl)-3-((3S,5S)-5-((R)-3-aminopyrrolidine-1-carbonyl)pyrrolidin-3-ylthio)-4-methyl-7-oxo-1-azabicyclo[3.2.0]hept-2-ene-2-carboxylic acid], for which the MIC was found to be 16 µg/mL (≈ 29.2 µM) in assay [1] (setting [5]), 0.25 µg/mL (≈ 0.456 µM) in assay [2] (setting [6]), 4 µg/mL (≈ 7.29 µM) in assay [3] (setting [7]) and 16 µg/mL (≈ 29.2 µM) in assay [4] (setting [8]).

Turning to `C[C@@H](NC(=O)Cn1cnnn1)[C@H]1C(=O)N2C(C(=O)O)=C(SC3COC4(CNC4)C3)[C@H](C)[C@H]12` (single isomer, unassigned) [Example 558], the minimal inhibitory concentration (MIC) in assay [1] (Meropenem susceptible P. aeruginosa ATCC27853) is 128 µg/mL (≈ 276 µM); in assay [2] (ESBL −ve E. coli ATCC25922), 0.5 µg/mL (≈ 1.08 µM); in assay [3], 16 µg/mL (≈ 34.5 µM); in assay [4] (KPC-2 K. pneumoniae ATCC BAA-1705), 2 µg/mL (≈ 4.31 µM).

Regarding `C[C@@H](NC(=O)Cn1cnnn1)[C@H]1C(=O)N2C(C(=O)O)=C(S[C@@H]3CN[C@H](C(=O)N4CCC(CN)CC4)C3)[C@H](C)[C@H]12` [Example 404, (4R,5S,6R)-6-((R)-1-(2-(1H-tetrazol-1-yl)acetamido)ethyl)-3-((3S,5S)-5-(4-(aminomethyl)piperidine-1-carbanoyl)pyrrolidin-3-ylthio)-4-methyl-7-oxo-1-azabicyclo[3.2.0]hept-2-ene-2-carboxylic acid], the MIC in assay [1] (setting [5]) was 1 µg/mL (≈ 1.78 µM); in assay [2] (setting [6]) it was 0.25 µg/mL (≈ 0.445 µM); in assay [3] (setting [7]) it was 1 µg/mL (≈ 1.78 µM); in assay [4] (setting [8]), 0.5 µg/mL (≈ 0.89 µM).

`C[C@@H](NC(=O)C(F)F)[C@H]1C(=O)N2C(C(=O)O)=C(S[C@@H]3CN[C@H](CNC(=O)[C@@H]4C[C@H](N)CN4)C3)[C@H](C)[C@H]12` [Example 259]: the minimal inhibitory concentration (MIC) in assay [1] (setting [5]) was above 128 µg/mL; in assay [2] (setting [6]) it was 4 µg/mL (≈ 7.54 µM); in assay [3] (setting [7]), 2 µg/mL (≈ 3.77 µM); in assay [4] (setting [8]), 16 µg/mL (≈ 30.2 µM).

On to `C[C@@H]1C[C@H](N)CN1C(=O)[C@@H]1C[C@H](SC2=C(C(=O)O)N3C(=O)[C@H]([C@@H](C)NC(=O)Cn4cnnn4)[C@H]3[C@H]2C)CN1` [Example 411, (4R,5S,6R)-6-((R)-1-(2-(1H-tetrazol-1-yl)acetamido)ethyl)-3-((3S,5S)-5-((2R,4S)-4-amino-2-methylpyrrolidine-1-carbonyl)pyrrolidin-3-ylthio)-4-methyl-7-oxo-1-azabicyclo[3.2.0]hept-2-ene-2-carboxylic acid], for which the minimal inhibitory concentration (MIC) in assay [1] (setting [5]) came out at 1 µg/mL (≈ 1.83 µM); in assay [2] (setting [6]), 0.25 µg/mL (≈ 0.457 µM); in assay [3] (setting [7]), 2 µg/mL (≈ 3.65 µM); in assay [4] (setting [8]), 1 µg/mL (≈ 1.83 µM).

As for `CCCCN[C@H](C)[C@H]1C(=O)N2C(C(=O)O)=C(S[C@@H]3CN[C@H](C(=O)N(C)C)C3)[C@H](C)[C@H]12` [Example 274], the MIC in assay [1] (setting [5]) was above 128 µg/mL; in assay [2] (setting [6]), 16 µg/mL (≈ 36.5 µM); in assay [3] (setting [7]), 32 µg/mL (≈ 73 µM); in assay [4] (setting [8]), 16 µg/mL (≈ 36.5 µM).

With `C[C@@H]1C(S[C@@H]2CN[C@H](C(=O)N(C)C)C2)=C(C(=O)O)N2C(=O)[C@H]([C@@H](C)NC(=O)C(F)F)[C@@H]12` [Example 337, (4S,5S,6R)-6-((R) - 1-(2,2-difluoroacetamido)ethyl)-3-((3S,5S)-5-(dimethylcarbamoyl)pyrrolidin-3-ylthio)-4-methyl-7-oxo-1-azabicyclo[3.2.0]hept-2-ene-2-carboxylic acid], the minimum inhibitory concentration (MIC) in assay [1] (setting [5]) is 32 µg/mL (≈ 69.5 µM); in assay [2] (setting [6]) it was 0.5 µg/mL (≈ 1.09 µM); in assay [3] (setting [7]), 2 µg/mL (≈ 4.34 µM); in assay [4] (setting [8]), 1 µg/mL (≈ 2.17 µM).
